The record followed here is ChEMBL document CHEMBL1833851, “Design, synthesis and X-ray crystallographic study of new nonsecosteroidal vitamin D receptor ligands” (Bioorg Med Chem Lett, 2011).

The experiment deals with T1, Vitamin D3 receptor (Homo sapiens, UniProt P11473).
T1 sequence (P11473 whole entry): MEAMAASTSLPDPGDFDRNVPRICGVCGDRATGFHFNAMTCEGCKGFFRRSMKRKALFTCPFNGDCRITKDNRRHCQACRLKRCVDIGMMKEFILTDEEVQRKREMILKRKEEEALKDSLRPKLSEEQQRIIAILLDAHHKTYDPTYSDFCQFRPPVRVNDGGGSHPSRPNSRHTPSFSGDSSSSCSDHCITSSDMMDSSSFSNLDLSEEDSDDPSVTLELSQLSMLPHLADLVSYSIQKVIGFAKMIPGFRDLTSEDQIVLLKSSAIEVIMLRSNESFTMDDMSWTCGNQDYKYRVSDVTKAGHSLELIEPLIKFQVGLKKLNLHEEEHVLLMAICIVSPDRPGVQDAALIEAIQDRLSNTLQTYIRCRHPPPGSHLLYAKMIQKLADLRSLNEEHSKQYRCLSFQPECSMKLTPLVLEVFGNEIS
The experiment is described as follows: Activity at human VDR expressed in human HOS cells transfected with pGL3-hOc, pCDNA-hVDR and phRL-TK assessed as assessed as transcriptional activation measured 24 hrs post […] by luciferase reporter gene assay. It counts as cell-based. Background: Reporter assays use an easily measured gene product as a stand-in for the process of interest.

Structures are written as SMILES.

Usually EC50 stands for the concentration needed to bring the measured effect to its halfway point. Take `CCC(CC)(c1ccc(OC[C@H](O)C(C)(C)C)c(C)c1)c1ccc(OC(CCO)CCO)c(C)c1`: the EC50 was determined as 19.4 nM. Then `CCC(CC)(c1ccc(OCC(CO)CO)c(C)c1)c1ccc(OC[C@H](O)C(C)(C)C)c(C)c1`, with 1.11 nM; and `CCC(CC)(c1ccc(OC[C@H](O)C(C)(C)C)c(C)c1)c1ccc(O[C@@H](CO)[C@@H](O)CO)c(C)c1`, with 0.92 nM; and `CCC(CC)(c1ccc(OC[C@H](O)C(C)(C)C)c(C)c1)c1ccc(O[C@H](CO)[C@H](O)CO)c(C)c1`, with 1.25 nM.

As for `CCC(CC)(c1ccc(OC[C@H](O)C(C)(C)C)c(C)c1)c1ccc(O[C@@H](CO)CCO)c(C)c1`, the EC50 is 0.06 nM. To `CCC(CC)(c1ccc(OC[C@H](O)C(C)(C)C)c(C)c1)c1ccc(O[C@H](CO)CCO)c(C)c1` belongs 1.29 nM.
